Data set [1] is described as follows: Colonic intubation study: plasma pharmacokinetics of rabeprazole and esomeprazole. The data set is classed as in vivo, human. As to conditions: male, human, plasma, po, 40 mg; for AUC(0-inf): read-out: AUCinf (mean). How it is done: A single-dose, open-label, partially randomized, five-treatment, five-period, crossover pilot study was performed in healthy males to determine relative pharmacokinetics of rabeprazole, and comparators when dosed either orally or colonically. The study was a single dose study with blood sampling up to 24 hours following initiation. […] Colonic dosing occurred using a nasoenteral tube. Treatment C was a single 20 mg dose of rabeprazole sodium oral enteric coated tablets dosed orally. Treatment D was placebo (200 mL of water) dosed orally. […] For subjects whose apparent elimination rate constant [k] could not be properly determined, the AUC to infinity [AUCinf]) was calculated based on the median apparent elimination constant [k] of the subjects with available t1/2 values in the same treatment period. […] The intragastric pH profile were determined.

Another data set concerns intragastric pH. The experiment in a line: Colonic intubation study: intragastric pH profile (percent of time with pH >4). The data set is classed as in vivo, human. As to conditions: for Mean percent of time with pH >4: TRT E: esomeprazole 40 mg oral tablet. The protocol:
A single-dose, open-label, partially randomized, five-treatment, five-period, crossover pilot study was performed in healthy males to determine relative pharmacokinetics of rabeprazole, and comparators when dosed either orally or colonically. The study was a single dose study with blood sampling up to 24 hours following initiation.
Treatments A and B were rabeprazole sodium solution dosed to provide 30 and 60 mg, respectively, over 20 hours in the transverse colon of the subjects. Colonic dosing occurred using a nasoenteral tube. Treatment C was a single 20 mg dose of rabeprazole sodium oral enteric coated tablets dosed orally. Treatment D was placebo (200 mL of water) dosed orally.
The intragastric pH profile was analyzed based on the percentage of time that the intragastric pH was above 4, which was calculated for the full 24 hours. In addition, the mean pH value over 5 time intervals of 6 hours each during the 30-hr sampling time was also estimated.

The mark [2] stands for this setting: TRT E: esomeprazole 40 mg oral tablet, N = 19.
Where [3] appears, read: TRT E: esomeprazole 40 mg oral tablet, subset N = 14.

Read-outs that look alike come from different tables or passages of the source.

For orientation: AUC(0-t) means the area under the concentration-time curve up to a stated or last time point. High values mean high exposure, low ones low exposure. Broadly, the Cmax is the maximum level reached in the sampled fluid or tissue.

In the case of `COc1ccc2nc([S@@+]([O-])Cc3ncc(C)c(OC)c3C)[nH]c2c1` [Esomeprazole], the AUC(0-t) amounted to 1870 ng·h/mL in data set [1] (setting [2]) and 2270 ng·h/mL in data set [1] (setting [3]). The results for the AUC(0-inf) in data set [1] (setting [2]) and in data set [1] (setting [3]) were 1910 ng·h/mL and 2310 ng·h/mL, respectively. In addition, the half-life in data set [1] (TRT E: esomeprazole 40 mg oral tablet, N = 19, read-out: t1/2 (median) (converted)) is 48 min; in data set [1] (oral administration of 40 mg esomeprazole, read-out: median half-life (converted)), ~60 min. Further, the Cmax in data set [1] (TRT E: esomeprazole 40 mg oral tablet, single dose, healthy males, N = 19) was determined as 727 ng/mL; in data set [1] (setting [3]), 800 ng/mL. The “Mean percent of time with pH >4” value with intragastric pH (0-6 hr (10 am-4 pm), N = 19) amounted to 57.0%; with intragastric pH (0-6 hr (10 am-4 pm), subset N = 14), 64.3%; in the data set on intragastric pH (6-12 hr (4 pm-10 pm), N = 19), 76.3%; with intragastric pH (6-12 hr (4 pm-10 pm), subset N = 14), 87.0%; with intragastric pH (12-18 hr (10 pm-4 am), N = 19), 36.6%; with intragastric pH (12-18 hr (10 pm-4 am), subset N = 14), 42.8%. In addition, the “Mean percent of time with pH >4” value with intragastric pH (18-24 hr (4 am-10 am), N = 19) was found to be 56.0%; in the data set with intragastric pH (18-24 hr (4 am-10 am), subset N = 14), 60.1%; in the data set on intragastric pH (24-30 hr (10 am-4 pm), N = 19), 49.5%; in the data set with intragastric pH (24-30 hr (10 am-4 pm), subset N = 14) it was 57.1%; in the data set with intragastric pH (24-hr average, N = 19), 56.5%; in the data set on intragastric pH (24-hr average, N = 19, listed as esomeprazole) it was 57%. In the data set on intragastric pH (24-hr average, subset N = 14), the “Mean percent of time with pH >4” value turned out to be 63.5%. For the same compound, the “effect on percentage of time with pH >4 compared to placebo” value with intragastric pH (first 6 hours of treatment, esomeprazole treatment) was “significant increase”.

The record behind these values is patent publication US20070298105A1, “METHODS OF TREATING CONDITIONS BY SUSTAINED RELEASE ADMINISTRATION OF BENZIMIDAZOLE DERIVATIVES” (priority 2006, published 2007).
